In PMC7311426, “An amphipathic peptide with antibiotic activity against multidrug-resistant Gram-negative bacteria” (Nature Communications, 2020):
Converted amounts (≈) assume the structure as drawn. Read-outs that look alike come from different tables or passages of the source. Residues, ends and D or L forms follow the SMILES beside them.

Columns and labels:
in vivo = conditions: both, mouse, plasma, inhaled or intranasal; for AUC(0-t) / Cmax: Plasma, mice
B. subtilis = experiment: microbe, parasite or virus in culture; conditions: for MIC: Bacillus subtilis
How it was run: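 Broth microdilution in MHB, 2-fold 12-point series from 128 or 64 down to 0.06 or 0.03 μg mL^−1, 5 × 10^5 CFU mL^−1. Extra runs in CAMHB per CLSI and in MHB with 1% agarose; n ≥ 6.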

E. coli AID#172 [1] = assay type: in vivo, E. coli in NMRI mice
Description: Peritonitis and UTI murine models were performed at the Department of Microbiology & Infection Control, Statens Serum Institute, Copenhagen, Denmark, under approval by the National Committee of Animal Ethics, Denmark, and adhered to the standards of EU Directive 2010/63/EU. The mouse pneumonia model was performed by Evotec Ltd, United Kingdom, under UK Home Office Licenses and with local ethical committee clearance. All animal studies were contracted by Adenium Biotech ApS.
(§1) Peptides were prepared in Ringer’s acetate pH 6.0 (vehicle) at 34 mg mL^−1. Comparator antibiotics included meropenem (Meronem®, AstraZeneca), polymyxin B sulfate (Sigma) and tobramycin (Novartis).
The E. coli peritonitis in vivo model was conducted using an E. coli AID#172 strain in female NMRI mice (Harlan) that were rendered neutropenic by injecting 0.5 mL cyclophosphamide solution (Apodan®) intraperitoneally for 4 days (~200 mg kg^−1) and 1 day (~100 mg kg^−1) prior to inoculation of infection. At time −1 h, mice were inoculated intraperitoneally with 0.5 mL of 2 × 10^6 CFU mL^−1 E. coli AID#172 suspension in the lateral lower quadrant of the abdomen. […] CFU counts were determined from blood and peritoneal fluid at 0 and 5 h after treatment. The mice were anesthetized with Zoletil® and blood was collected by axillary cut down. The mice were killed by cervical dislocation, a total of 2 mL sterile saline was injected i.p. and the abdomen gently massaged before it was opened, fluid sampled with a pipette, and collected for CFU counts on agar.

E. coli AID#172 [2] = assay type: in vivo, E. coli in NMRI mice; remark: listed apart in the source
Description: as §1
The E. coli thigh infection in vivo model was conducted using an E. coli AID#172 strain in female NMRI mice (Taconic) that were rendered neutropenic as above. At time −1 h, mice were inoculated intramuscularly in the quadriceps femoral muscle close to the femur of the left hind leg with 0.05 mL of a suspension of ~1–5 × 10^7 CFU mL^−1 of E. coli (fresh overnight colonies from 5% Horse Blood Agar plate suspended in sterile saline to ~10^8 CFU mL^−1, then diluted) with compound administered intravenously 1 and 12 h post infection (injection over 30 s with 10 mL kg^−1 of 0.6–15 mg kg^−1 AA139 or 5 mg kg^−1 polymyxin B). Colony counts were determined in thighs at 0 and 24 h post infection. The mice were killed by cervical dislocation, the skin was removed and the left hind leg from the hip joint to the hock was collected, cut into at least three parts and frozen at −80 °C. After thawing, the thighs were homogenized in 5 mL saline using a Dispomix® Drive. Each sample was then 10-fold diluted in saline and 20 μL spots were applied on 5% blood agar plates. All agar plates were incubated 18–24 h at 35 °C in ambient air.

[3] = SPR binding to model membrane lipids; set-up: unit: 100 × RU/MW; conditions: mean of n = 3
Description: SPR experiments were performed on a Biacore T200 using an L1 sensor chip as previously described. Small unilamellar vesicles (SUVs) were prepared in PBS by sonication and extrusion. Lipids were dissolved in ethanol-free chloroform in 25 mL round-bottom flasks. 10% (mol/mol) of E. coli lipid A, diphosphoryl (Sigma-Aldrich, Cat # L5399) was added into 1,2-dimyristoyl-sn-glycero-3-phosphocholine (DMPC) (Auspep, Cat # 850345P) solution to make lipid A–DMPC mixtures, which were then deposited as a thin film by removal of the solvent (chloroform) under reduced pressure on a rotary evaporator and dried under high vacuum for at least 2 h. PBS was then added into each flask to give a 1 mM (DMPC) suspension, which was sonicated 5 min for five times. […] The SUVs were then injected into the flow cells of the L1 sensor chip for 2000 s at a low flow rate of 2 μL min^−1 to form a bilayer membrane model on the chip surface. Then, a series of peptide solutions (30–0.33 μM in 3-fold dilution), was injected across the flow cells at a flow rate of 30 μL min^−1, having an injection phase of 180 s, and a dissociation phase of 300 s. The binding responses (RU) were normalized by molecular weight (MW) of each peptide. The equation 100 × RU/MW was used for normalization.

E. coli ATCC 25922 = experiment: NPN uptake assay, outer membrane permeabilization; assay type: cell-based, Escherichia coli; conditions: Prism nonlinear fit, One site - specific binding with Hill slope, Bmax = 100
[4] = 5 mg kg-1/day, Day 1, 5 mg kg-1/day, 2 hour daily inhalation
[5] = 5 mg kg-1/day, Day 7, 5 mg kg-1/day, inhalation
[6] = 40 mg kg-1/day, Day 1, 40 mg kg-1/day, inhalation
[7] = AA139 3.75 mg kg-1, Meropenem 40 mg kg-1, Dunnett's multiple comparisons test
[8] = MDR E. coli AID #172, AA139 3.75 mg kg-1, Meropenem 40 mg kg-1, mean of n = 3

With `CC(C)[C@@H]1NC(=O)[C@H](Cc2ccc(O)cc2)NC(=O)[C@H](Cc2c[nH]c3ccccc23)NC(=O)[C@@H](NC(=O)[C@H](Cc2ccccc2)NC(=O)CN)CSSC[C@@H](C(=O)N[C@@H](CC(N)=O)C(=O)O)NC(=O)[C@H](CCCNC(=N)N)NC(=O)[C@H](CCCNC(=N)N)NC(=O)[C@H](Cc2ccc(O)cc2)NC(=O)[C@@H]2CSSC[C@H](NC1=O)C(=O)N[C@@H](C)C(=O)N[C@@H](CCCNC(=N)N)C(=O)N[C@@H](CCCNC(=N)N)C(=O)N[C@@H](CC(N)=O)C(=O)NCC(=O)N[C@@H](C)C(=O)N[C@@H](CCCNC(=N)N)C(=O)N[C@@H](C(C)C)C(=O)N2` [AA139] (HELM PEPTIDE1{G.F.C.W.Y.V.C.A.R.R.N.G.A.R.V.C.Y.R.R.C.N}$PEPTIDE1,PEPTIDE1,3:R3-20:R3|PEPTIDE1,PEPTIDE1,7:R3-16:R3$$$V2.0) the Tmax (in vivo; 5 mg kg-1/day) was 18 min, the AUC(0-t) (in vivo; [4]) was 0.262 µg·h/mL and the AUC(0-t) (in vivo; [5]) was 0.085 µg·h/mL. The Cmax (in vivo; [4]) was 0.122 µg/mL, the Cmax (in vivo; [5]) was 0.064 µg/mL and the Tmax (in vivo; 20 mg kg-1/day) was 18 min. The Cmax (in vivo; 20 mg kg-1/day, Day 1, 20 mg kg-1/day, inhalation) was 0.952 µg/mL, the Cmax (in vivo; 20 mg kg-1/day, Day 7, 20 mg kg-1/day, inhalation) was 0.467 µg/mL and the Tmax (in vivo; 40 mg kg-1/day) was 18 min. For the same compound, the AUC(0-t) (in vivo; [6]) was 4.54 µg·h/mL, the Cmax (in vivo; [6]) was 2.46 µg/mL and the “BMD MIC” value (B. subtilis) was 2 mg/L. The ED50 in blood (E. coli AID#172 [1]; mouse, in vivo, iv) was 1.55 mg/kg, the “ED50 in peritoneal fluid” value (E. coli AID#172 [1]; mouse, in vivo, iv) was 1.85 mg/kg and the ED50 in thigh (E. coli AID#172 [2]; mouse, in vivo, iv) was 4.8 mg/kg.

With “polymyxin B [PolymyxinB, reference compound]” the “SPR response, Mean1 (DMPC)” value ([3]; 1uM) was 28.3373, the “SPR response, Mean1 (DMPC)” value ([3]; 10uM) was 126.211 and the “Log reduction in thigh CFU compared to saline control” value (E. coli AID#172 [2]; 5 mg kg^−1, two i.v. doses) was 3.13 log.

Work on `CNC(C)C1CCC(N)C(OC2C(N)CC(N)C(OC3OCC(C)(O)C(NC)C3O)C2O)O1` (stereo not shown) [Gentamicin, gentamicin, reference compound] yielded an MIC (B. subtilis; ATCC6051 / NRS744, read-out: BMD MIC) of 0.25 mg/L (≈ 0.523 µM) and an MIC (B. subtilis; ATCC6633 / NRS231, read-out: BMD MIC) of 0.5 mg/L (≈ 1.05 µM).

With colistin the “SPR response, Mean1 (DMPC)” value ([3]; 1uM) was 7.037 and the “SPR response, Mean1 (DMPC)” value ([3]; 10uM) was 58.5213.

For `C[C@@H](O)[C@H]1C(=O)N2C(C(=O)O)=C(S[C@@H]3CN[C@H](C(=O)N(C)C)C3)[C@H](C)[C@H]12` [Meropenem, meropenem, reference compound], the “h (Hill slope, best-fit value)” value (E. coli ATCC 25922) was 0.3497, the “Change of CFU levels in peritoneal fluid and blood vs vehicle” value (E. coli AID#172 [1]; 40 mg kg^−1 i.v., not statistically significant) was “slight reduction” and the “Blood 5hr, Mean Diff. vehicle vs. treatment” value (E. coli AID#172 [1]; [7]) was 0.6733. For the same compound, the “PF 5hr, Mean Diff. vehicle vs. treatment” value (E. coli AID#172 [1]; [7]) was 0.08333, the “Blood 5hr bacterial load, Mean” value (E. coli AID#172 [1]; [8]) was 3.163 and the “PF 5 hr bacterial load, Mean” value (E. coli AID#172 [1]; [8]) was 4.56.
